Measured values as given in patent US8507005B2, “Particulates of a CRTH2 antagonist” (Actimis Pharmaceuticals, Inc., priority 2007, dated 2013).
≈ marks a conversion by molar mass, not a printed value. Read-outs that look alike come from different tables or passages of the source.

Key:
[1] = Solubility of saturated solutions determined by HPLC; assay type: physicochemical
Experimental: Saturated solutions of {4,6-bis(dimethylamino)-2-(4-(4-(trifluoromethyl)-benzamido)benzyl)pyrimidin-5-yl}acetic acid of Formula I in the solvents listed in Table 1 were prepared from the acid predominantly in Form I, at both 25 and 50° C.

[2] = Thermogravimetric analysis (thermal stability); assay type: physicochemical; settings: TGA, heating rate 20° C./min
Experimental: The thermogravimetric analysis was also conducted on a Mettler 850, TA 2920. Samples were placed into a ceramic or aluminum sample pan. A heating rate of 20° C./min was employed over a temperature range from 20° C. to 600° C.

CRTH2 = target: T1, CRTH2 (Homo sapiens, UniProt Q9Y5Y4); test: Competitive radioligand (3H-PGD2) binding assay, CRTH2-transfected cells; settings: competition with 1 nM 3H-PGD2, CRTH2-transfected cells, FIG. 10
T1 construct: expressed in transfected cells
T1 sequence (Q9Y5Y4 1-395): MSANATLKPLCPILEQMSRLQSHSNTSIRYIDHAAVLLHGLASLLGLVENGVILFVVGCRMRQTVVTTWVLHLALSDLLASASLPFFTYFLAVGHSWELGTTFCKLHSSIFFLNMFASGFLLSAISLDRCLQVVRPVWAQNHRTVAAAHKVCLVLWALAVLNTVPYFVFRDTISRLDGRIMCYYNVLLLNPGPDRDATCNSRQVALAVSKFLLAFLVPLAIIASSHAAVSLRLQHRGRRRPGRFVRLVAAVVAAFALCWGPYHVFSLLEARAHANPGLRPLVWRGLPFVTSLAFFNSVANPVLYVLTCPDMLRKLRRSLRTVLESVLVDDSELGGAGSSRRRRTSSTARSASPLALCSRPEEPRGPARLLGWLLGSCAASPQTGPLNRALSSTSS
From the text: Prostaglandin D2 and 13,14-dihydro-15-keto PGD2 were obtained from Cayman Chemical (Ann Arbor, Mich.). Radiolabelled PGD2 (5,6,8,9,12,14,15-^3H(N)) with a specific activity of 160 Ci/mmol was obtained from PerkinElmer (Boston, Mass.). Cell culture medium RPMI 1640, HEPES buffer, phosphate buffered saline (PBS), L-glutamine, and penicillin-streptomycin solution were obtained from Mediatech Inc. (Herndon, Va.). Fetal calf serum (FCS) was obtained from Cambrex (Walkersville, Md.). Puromycin was obtained from Invitrogen (San Diego, Calif.). […]
The surface expression of CRTH2 on the transfected cell lines was monitored periodically during culture and prior to each competitive radioligand binding assay. […] The cells were then washed in 2 mL of FACS buffer (PBS containing 1% BSA (Fraction V) and 0.1% sodium azide. The cells were subsequently incubated on ice with a FITC-conjugated anti-rat antibody (goat anti-rat Ig-FITC). After washed with cold FACS buffer, the cells were analyzed using a FACScan II analyzer and CellQuest software, both from Becton Dickinson (Mountain View, Calif.). […]

DP1 = target: T2, DP1 (Homo sapiens, UniProt Q13258); test: Competitive radioligand (3H-PGD2) binding assay, DP1-transfected cells; settings: competition with 1 nM 3H-PGD2, DP1-transfected cells, FIG. 11
T2 sequence (Q13258 1-359): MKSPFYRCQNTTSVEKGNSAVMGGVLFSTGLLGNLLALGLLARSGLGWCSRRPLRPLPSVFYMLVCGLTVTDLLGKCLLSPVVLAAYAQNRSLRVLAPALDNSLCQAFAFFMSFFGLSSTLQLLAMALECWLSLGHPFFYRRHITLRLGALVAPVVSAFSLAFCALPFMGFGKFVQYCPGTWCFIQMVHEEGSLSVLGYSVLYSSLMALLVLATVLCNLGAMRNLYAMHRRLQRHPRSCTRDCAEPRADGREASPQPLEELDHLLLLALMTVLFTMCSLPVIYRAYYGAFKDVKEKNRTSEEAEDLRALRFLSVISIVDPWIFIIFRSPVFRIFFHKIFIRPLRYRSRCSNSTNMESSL
Experimental: The binding affinity and selectivity of the amine salts of 4,6-bis(dimethylamino)-2-(4-(4-(trifluoromethyl)benzamido)benzyl)pyrimidin-5-yl}acetic acid provided herein were evaluated using a competitive radioligand binding assay with stably-transfected cell lines expressing CRTH2 or DP1.
Prostaglandin D2 and 13,14-dihydro-15-keto PGD2 were obtained from Cayman Chemical (Ann Arbor, Mich.). Radiolabelled PGD2 (5,6,8,9,12,14,15-^3H(N)) with a specific activity of 160 Ci/mmol was obtained from PerkinElmer (Boston, Mass.). Cell culture medium RPMI 1640, HEPES buffer, phosphate buffered saline (PBS), L-glutamine, and penicillin-streptomycin solution were obtained from Mediatech Inc. (Herndon, Va.). Fetal calf serum (FCS) was obtained from Cambrex (Walkersville, Md.). Puromycin was obtained from Invitrogen (San Diego, Calif.). Poly(ethyleneimine) (PEI) was obtained from Acros Organics (Morris Plains, N.J.). […]
Radioligand binding analyses were performed according to the methods of Sugimoto et al. (J. Pharm. Exp. Therap. 2003, 305, 347-352; Eur. J. Pharmacol. 2005, 524, 30-37). […] Scintillant (50 μL; Microscint™ 20, Perkin Elmer, Boston, Mass.) was added to each well and the radioactivity was counted on a TopCount (Packard Bioscience, Meriden, Conn.). […]

CN(C)c1nc(Cc2ccc(NC(=O)c3ccc(C(F)(F)F)cc3)cc2)nc(N(C)C)c1CC(=O)O [Form I, {4,6-bis(dimethylamino)-2-(4-(4-(trifluoromethyl)benzamido)benzyl)pyrimidin-5-yl}acetic acid]
solubility ([1]; water, at room temperature, read-out: aqueous solubility): ~3 µg/mL (≈ 5.98 µM) | decomposition temperature (no significant weight loss until decomposition) [2]: around 200 °C

CN(C)c1nc(Cc2ccc(NC(=O)c3ccc(C(F)(F)F)cc3)cc2)nc(N(C)C)c1CC(=O)O [Formula I, {4,6-bis(dimethylamino)-2-(4-(4-(trifluoro-methyl)benzamido)benzyl)pyrimidin-5-yl}acetic acid]
solubility ([1]; organic solvent or mixture, thermodynamic from solid, 1,4-Dioxane, 25° C., read-out: Solubility): 3370 µg/mL | solubility ([1]; organic solvent or mixture, thermodynamic from solid, 1,4-Dioxane, 50° C., read-out: Solubility): 9830 µg/mL | solubility ([1]; organic solvent or mixture, thermodynamic from solid, 1-Propanol, 25° C., read-out: Solubility): 790 µg/mL | solubility ([1]; organic solvent or mixture, thermodynamic from solid, 1-Propanol, 50° C., read-out: Solubility): 2410 µg/mL | solubility ([1]; organic solvent or mixture, thermodynamic from solid, 2-Methoxyethanol, 25° C., read-out: Solubility): 5350 µg/mL | solubility ([1]; organic solvent or mixture, thermodynamic from solid, 2-Methoxyethanol, 50° C., read-out: Solubility): 8550 µg/mL | solubility ([1]; organic solvent or mixture, thermodynamic from solid, Acetone, 25° C., read-out: Solubility): 2620 µg/mL | solubility ([1]; organic solvent or mixture, thermodynamic from solid, Acetone, 50° C., read-out: Solubility): 3340 µg/mL | solubility ([1]; organic solvent or mixture, thermodynamic from solid, DMSO, 25° C., read-out: Solubility): > 50000 µg/mL | solubility ([1]; organic solvent or mixture, thermodynamic from solid, DMSO, 50° C., read-out: Solubility): > 50000 µg/mL | solubility ([1]; organic solvent or mixture, thermodynamic from solid, Ethanol, 25° C., read-out: Solubility): 1090 µg/mL | solubility ([1]; organic solvent or mixture, thermodynamic from solid, Ethanol, 50° C., read-out: Solubility): 2250 µg/mL | solubility ([1]; organic solvent or mixture, thermodynamic from solid, Ethyl acetate, 25° C., read-out: Solubility): 530 µg/mL | solubility ([1]; organic solvent or mixture, thermodynamic from solid, Ethyl acetate, 50° C., read-out: Solubility): 1270 µg/mL | solubility ([1]; organic solvent or mixture, thermodynamic from solid, Ethyl formate, 25° C., read-out: Solubility): 390 µg/mL | solubility ([1]; organic solvent or mixture, thermodynamic from solid, Ethyl formate, 50° C., read-out: Solubility): 1510 µg/mL | solubility ([1]; organic solvent or mixture, thermodynamic from solid, Isobutyl acetate, 25° C., read-out: Solubility): 200 µg/mL | solubility ([1]; organic solvent or mixture, thermodynamic from solid, Isobutyl acetate, 50° C., read-out: Solubility): 830 µg/mL | solubility ([1]; organic solvent or mixture, thermodynamic from solid, Isopropanol, 25° C., read-out: Solubility): 770 µg/mL | solubility ([1]; organic solvent or mixture, thermodynamic from solid, Isopropanol, 50° C., read-out: Solubility): 1960 µg/mL | solubility ([1]; organic solvent or mixture, thermodynamic from solid, Isopropyl acetate, 25° C., read-out: Solubility): 270 µg/mL | solubility ([1]; organic solvent or mixture, thermodynamic from solid, Isopropyl acetate, 50° C., read-out: Solubility): 780 µg/mL | solubility ([1]; organic solvent or mixture, thermodynamic from solid, MIBK, 25° C., read-out: Solubility): 540 µg/mL | solubility ([1]; organic solvent or mixture, thermodynamic from solid, MIBK, 50° C., read-out: Solubility): 1800 µg/mL | solubility ([1]; organic solvent or mixture, thermodynamic from solid, MTBE, 25° C., read-out: Solubility): 90 µg/mL | solubility ([1]; organic solvent or mixture, thermodynamic from solid, MTBE, 50° C., read-out: Solubility): 410 µg/mL | solubility ([1]; organic solvent or mixture, thermodynamic from solid, Methanol, 25° C., read-out: Solubility): 2230 µg/mL | solubility ([1]; organic solvent or mixture, thermodynamic from solid, Methanol, 50° C., read-out: Solubility): 3040 µg/mL | solubility ([1]; organic solvent or mixture, thermodynamic from solid, Toluene, 50° C., read-out: Solubility): 30 µg/mL | solubility ([1]; organic solvent or mixture, thermodynamic from solid, n-Butanol, 25° C., read-out: Solubility): 790 µg/mL | solubility ([1]; organic solvent or mixture, thermodynamic from solid, n-Butanol, 50° C., read-out: Solubility): 2110 µg/mL | solubility ([1]; saturated solution in DMF, organic solvent or mixture, thermodynamic from solid, DMF, 25° C., read-out: Solubility): > 50000 µg/mL | solubility ([1]; saturated solution in DMF, organic solvent or mixture, thermodynamic from solid, DMF, 50° C., read-out: Solubility): > 50000 µg/mL | solubility ([1]; saturated solution in MEK, organic solvent or mixture, thermodynamic from solid, MEK, 25° C., read-out: Solubility): 1980 µg/mL | solubility ([1]; saturated solution in MEK, organic solvent or mixture, thermodynamic from solid, MEK, 50° C., read-out: Solubility): 4260 µg/mL | solubility ([1]; saturated solution in THF, organic solvent or mixture, thermodynamic from solid, THF, 25° C., read-out: Solubility): 11300 µg/mL | solubility ([1]; saturated solution in THF, organic solvent or mixture, thermodynamic from solid, THF, 50° C., read-out: Solubility): 32700 µg/mL | solubility ([1]; saturated solution in acetonitrile, organic solvent or mixture, thermodynamic from solid, Acetonitrile, 25° C., read-out: Solubility): 240 µg/mL | solubility ([1]; saturated solution in acetonitrile, organic solvent or mixture, thermodynamic from solid, Acetonitrile, 50° C., read-out: Solubility): 940 µg/mL | solubility ([1]; saturated solution in chloroform, organic solvent or mixture, thermodynamic from solid, Chloroform, 25° C., read-out: Solubility): 170 µg/mL | solubility ([1]; saturated solution in chloroform, organic solvent or mixture, thermodynamic from solid, Chloroform, 50° C., read-out: Solubility): 350 µg/mL | solubility ([1]; saturated solution in dichloromethane, organic solvent or mixture, thermodynamic from solid, Dichloromethane, 25° C., read-out: Solubility): 70 µg/mL | solubility ([1]; thermodynamic from solid, Water, 50° C., read-out: Solubility): 20 µg/mL | binding affinity for CRTH2 (CRTH2): high affinity | binding selectivity for CRTH2 versus DP1 (DP1): binds selectively to CRTH2
